Assay results: US6406679B1, “Use of HL-60-related lectins in drug delivery and detection of lectin-expressing cells” (Incyte Pharmaceuticals, Inc., priority 1992, dated 2002)

Columns and labels:
[1] = biological target: T1, 14 kD lectins (HL-60 cells, placenta, recombinant E. coli) (Homo sapiens, UniProt P09382); experiment: Inhibition by competing sugars of lectin-induced agglutination of trypsinized rabbit erythrocytes; format: biochemical; conditions: FIG. 5
T1 construct: the N-terminal methionine of the HL-60 lectin appears to be cleaved, and the remaining protein can be acetylated; secretion signal (only the E. coli-made preparation); made in house; host or cells: three preparations tested side by side: purified from HL-60 cells, purified from human placenta tissue, recombinant from E. coli (secretion signal)
T1 sequence (P09382 2-135 limits assumed): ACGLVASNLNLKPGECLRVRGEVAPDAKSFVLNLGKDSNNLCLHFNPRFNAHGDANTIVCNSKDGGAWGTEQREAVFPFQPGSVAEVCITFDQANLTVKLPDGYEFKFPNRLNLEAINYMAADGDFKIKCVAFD
From the text: (§1) Biological activity of the inventive 14 kD lectins 1) isolated from HL-60 cells, 2) isolated from placenta tissue or 3) prepared recombinantly from E. coli cells transfected with lectin cDNA operably linked to a secretion signal was ascertained by agglutination of trypsinized rabbit erythrocytes.

[2] = system: trypsinized rabbit erythrocytes; experiment: Agglutination of trypsinized rabbit erythrocytes; format: cell-based; conditions: control, FIG. 5
From the text: as §1

[3] = biological target: epitope recognized by M3 antibody on human blood cells (macrophages) (human); experiment: flow cytometry of human blood cells pretreated with lectin, then stained with fluoresceinated M3 antibody, against untreated control
[4] = biological target: epitope recognized by M1 antibody on human blood cells (macrophages) (human); experiment: flow cytometry of human blood cells pretreated with lectin, then stained with fluoresceinated M1 antibody, against untreated control

OC[C@H]1O[C@@H](O[C@H]2[C@H](O)[C@@H](O)[C@H](O)O[C@@H]2CO)[C@H](O)[C@@H](O)[C@H]1O [β-lactose]
concentrations inhibiting agglutination of the erythrocytes [1]: greater than 1.25 mM

OC[C@H]1O[C@@H](S[C@@H]2O[C@H](CO)[C@H](O)[C@H](O)[C@H]2O)[C@H](O)[C@@H](O)[C@H]1O [Thiodigalactoside, thiodigalactoside]
concentrations inhibiting agglutination of the erythrocytes [1]: greater than 0.31 mM

Concanavalin A
agglutination end-point [2]: 1.5 µg/mL

recombinant 14 kD beta-galactoside-binding soluble lectin (HL-60 / placenta lectin) produced in E. coli (from UniProt P09382 2-135)
reduction of the percent of positive cells [3]: 26% | reduction of the percent of positive cells [4]: 33%
